Read-outs that look alike come from different tables or passages of the source.
What was measured:
[1] = target: T1, full-length NS3/NS4A-2 (HCV NS3 protease) (Hepatitis C virus genotype 1a, UniProt P27958); assay: NS3-NS4 protease assay / NS3 inhibition assay (RETS1 substrate, fluorescence kinetic read); assay type: biochemical
T1 construct: Recombinant E. coli or Baculovirus full-length NS3 was diluted to 3.33 μM with assay buffer; made in house; host or cells: E. coli or baculovirus (BV) expression system
T1 sequence (P27958 1027-1657): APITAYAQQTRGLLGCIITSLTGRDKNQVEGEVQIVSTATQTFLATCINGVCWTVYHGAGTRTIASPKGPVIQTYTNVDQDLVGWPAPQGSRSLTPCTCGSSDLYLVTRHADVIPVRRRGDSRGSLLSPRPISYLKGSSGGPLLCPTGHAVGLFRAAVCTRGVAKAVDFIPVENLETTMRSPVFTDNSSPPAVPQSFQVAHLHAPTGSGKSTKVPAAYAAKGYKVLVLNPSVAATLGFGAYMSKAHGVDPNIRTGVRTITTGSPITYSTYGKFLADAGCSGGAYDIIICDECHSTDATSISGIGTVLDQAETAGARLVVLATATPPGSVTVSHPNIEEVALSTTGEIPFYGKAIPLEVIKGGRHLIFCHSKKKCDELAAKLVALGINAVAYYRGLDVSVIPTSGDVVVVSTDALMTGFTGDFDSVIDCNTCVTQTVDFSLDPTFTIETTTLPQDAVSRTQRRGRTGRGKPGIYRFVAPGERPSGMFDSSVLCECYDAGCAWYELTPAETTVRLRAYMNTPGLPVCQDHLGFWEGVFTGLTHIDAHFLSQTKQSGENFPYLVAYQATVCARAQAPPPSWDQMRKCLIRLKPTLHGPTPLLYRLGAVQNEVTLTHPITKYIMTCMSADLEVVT
How it was run: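 Ki values come from IC50 fits corrected via Ki=IC50/(1+[S]/Km), with Km 2.03 μM for E. coli and 1.74 μM for baculovirus full-length NS3. Enzyme (2 or 3 nM NS3, respectively, complexed with NS4A-2) sat with compound, top concentration 50 microM, for 10 min at room temperature. Cleavage of RETS1 (8 μM working solution) was then followed by fluorescence (335/495 nm) over 30 min.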

[2] = test system: HCV sub-genomic replicon in GS4.3 cells (HuH-7 hepatoma cells); assay: Quantitation by ELISA of Neomycin phosphotransferase II (NPTII) in the HCV sub-genomic replicon, GS4.3; assay type: cell-based, hepatitis C virus; settings: Hepatitis C virus, Huh-7
How it was run: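 Replicon-bearing HuH-7 (GS4.3) cells were exposed to compounds for 72 h in G418-free medium, top final concentration 10 μM, 1% DMSO. Lysates went to an NPTII ELISA read at 450 nm. Signal was normalised to DMSO-treated wells and EC50 was derived by four-parameter curve fitting.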

[3] = recombinant E. coli or Baculovirus full-length NS3 with NS4A-2, read-out: NS3-NS4 IC50
[4] = GS4.3 cells, 72 h incubation, NPTII ELISA, read-out: Replicon EC50

Compound	IC50 [1, 3] [nM]	EC50 [2, 4] [nM]	EC50 ([2]; Table 26, read-out: EC50) [nM]	IC50 [1] [nM]
CC(C)(C)OC(=O)N[C@H]1CCCCC/C=C\[C@@H]2C[C@@]2(C(=O)NS(=O)(=O)C2CC2)NC(=O)C2Cc3cc(Oc4cccc(C(F)(F)F)c4)ccc3CN2C1=O (stereo partly drawn) [Compound 2008, tert-Butyl (1aS,9S,19aR,Z)-19a-(cyclopropylsulfonylcarbamoyl)-10,18-dioxo-15-(3-(trifluoromethyl)phenoxy)-1a,4,5,6,7,8,9,10,12,17,17a,18,19,19a-tetradecahydro-1H-1,14-diaza-bicyclo[13.1.0]hexadeca-1(15), 2-dieno[11,12-b]isoquinolin-9-ylcarbamate]	< 1000	< 10000	–	–
O=C1N[C@]2(C(=O)NS(=O)(=O)C3CC3)C[C@H]2/C=C\CCCCC[C@H](N(CC2CC2)CC2CC2)C(=O)N2C[C@H](OC(=O)N3Cc4cccc(F)c4C3)C[C@@H]12 [Compound 911]	< 1000	< 10000	–	–
CC(C)(C)OC(=O)N[C@H]1CCCCC/C=C\[C@@H]2C[C@@]2(C(=O)NS(=O)(=O)c2cnccc2Cl)NC(=O)[C@@H]2C[C@@H](OC(=O)N3Cc4ccccc4C3)CN2C1=O [Compound 108]	< 100	< 10000	–	–
CN(C)S(=O)(=O)NC(=O)[C@@]12C[C@H]1/C=C\CCCCC[C@H](NC(=O)OC(C)(C)C)C(=O)N1C[C@H](OC(=O)N3Cc4c(Cl)ccc(Cl)c4C3)C[C@H]1C(=O)N2 [Compound 206]	< 100	< 100	–	–
CCCNC(=O)[C@@]12C[C@H]1/C=C\CCCCC[C@H](NC(=O)OC(C)(C)C)C(=O)N1C[C@H](OC(=O)N3Cc4ccccc4C3)C[C@H]1C(=O)N2 [Compound 600]	< 100	< 1000	–	–
CC(C)(C)OC(=O)N[C@H]1CCCCC/C=C\[C@@H]2C[C@@]2(C(=O)NS(=O)(=O)C2CC2)NC(=O)[C@@H]2C[C@@H](OC(=O)N3Cc4cccc(Br)c4C3)CN2C1=O [Compound 160]	< 100	< 100	–	–
O=C(CCC(F)(F)F)N[C@H]1CCCCC/C=C\[C@@H]2C[C@@]2(C(=O)NS(=O)(=O)C2CC2)NC(=O)[C@@H]2C[C@@H](OC(=O)N3Cc4cccc(Cl)c4C3)CN2C1=O [Compound 143]	< 100	< 100	–	–
O=C(N[C@H]1CCCCC/C=C\[C@@H]2C[C@@]2(C(=O)NC(=O)C2CC2)NC(=O)[C@@H]2C[C@@H](OC(=O)N3CCc4ccccc4C3)CN2C1=O)OC1CCCC1 [Compound 706]	< 100	< 100	–	–
O=C(N[C@H]1CCCCC/C=C\[C@@H]2C[C@@]2(C(=O)NS(=O)(=O)c2cc(Cl)sc2Cl)NC(=O)[C@@H]2C[C@@H](OC(=O)N3Cc4cccc(F)c4C3)CN2C1=O)OC1CCCC1 [Compound 173]	< 100	< 100	–	–
CC(C)(C)OC(=O)N[C@H]1CCCCC/C=C\[C@@H]2C[C@@]2(C(=O)NS(=O)(=O)N2CCCC2)NC(=O)[C@@H]2C[C@@H](OC(=O)N3Cc4cccc(Cl)c4C3)CN2C1=O [Compound 214]	< 100	< 100	–	–
CC(C)(C)OC(=O)N[C@H]1CCCCC/C=C\[C@@H]2C[C@@]2(C(=O)N[C@@H]2CCS(=O)(=O)C2)NC(=O)[C@@H]2C[C@@H](OC(=O)N3Cc4cccc(F)c4C3)CN2C1=O [Compound 633]	< 1000	< 1000	–	–
CC(C)(C)OC(=O)N[C@H]1CCCCC/C=C\[C@@H]2C[C@@]2(C(=O)O)NC(=O)[C@@H]2C[C@@H](OC(=O)N3Cc4ccc(OCCNC5CC5)cc4C3)CN2C1=O [Compound 131]	< 100	< 10000	–	–
O=C1N[C@]2(C(=O)NS(=O)(=O)C3CC3)C[C@H]2/C=C\CCCCC[C@H](NCCC(F)(F)F)C(=O)N2C[C@H](OC(=O)N3Cc4cccc(F)c4C3)C[C@@H]12 [Compound 900]	< 100	< 100	–	–
O=C(CCC(F)(F)F)N[C@H]1CCCCC/C=C\[C@@H]2C[C@@]2(C(=O)O)NC(=O)[C@@H]2C[C@@H](OC(=O)N3Cc4ccccc4C3)CN2C1=O [Compound 136]	< 100	> 10000	–	–
CC(C)(C)OC(=O)N[C@H]1CCCCC/C=C\[C@@H]2C[C@@]2(C(=O)NS(=O)(=O)C2CC2)NC(=O)[C@@H]2C[C@@H](OC(=O)N3Cc4ccc(C(F)(F)F)cc4C3)CN2C1=O [Compound 112]	< 100	< 100	–	–
O=C(N[C@H]1CCCCC/C=C\[C@@H]2C[C@@]2(C(=O)NS(=O)(=O)N2CCC2)NC(=O)[C@@H]2C[C@@H](OC(=O)N3Cc4cccc(F)c4C3)CN2C1=O)OC1CCCC1 [Compound 217]	< 100	< 100	–	–
CC[C@@H]1C[C@H]2C(=O)N[C@]3(C(=O)NS(=O)(=O)C4CC4)C[C@H]3/C=C\CCCCC[C@H](NC(=O)C3CC3)C(=O)N2C1 [Compound 318]	< 1000	> 10000	–	–
CC(C)(C)OC(=O)N[C@H]1CCOCCCC[C@@H]2C[C@@]2(C(=O)NS(=O)(=O)C2CC2)NC(=O)[C@@H]2C[C@@H](OC(=O)N3Cc4cccc(F)c4C3)CN2C1=O [Compound 1028, (2R,6S,13aR,14aR,16aS)-6-(tert-butoxycarbonylamino)-14a-(cyclopropylsulfonylcarbamoyl)-5,16-dioxohexadecahydro-1H-cyclopropa(j)pyrrolo[1,2-f][1,6,9]oxadiazacyclopentadecin-2-yl 4-fluoroisoindoline-2-carboxylate]	< 100	< 100	–	–
O=C(Cc1ccc(Cl)cc1)N[C@H]1CCCCC/C=C\[C@@H]2C[C@@]2(C(=O)NS(=O)(=O)C2CC2)NC(=O)C2CCCN2C1=O (stereo partly drawn) [Compound 2143]	> 10000	–	> 10000	–
N[C@H]1CCCCC/C=C\[C@@H]2C[C@@]2(C(=O)NS(=O)(=O)N2CCC(F)(F)C2)NC(=O)[C@@H]2C[C@@H](OC(=O)N3Cc4cccc(Cl)c4C3)CN2C1=O [Compound 222]	–	< 10000	–	< 100
CN(C)S(=O)(=O)NC(=O)[C@@]12C[C@H]1CCCCC(F)(F)CC[C@H](NC(=O)OC(C)(C)C)C(=O)N1C[C@H](OC(=O)N3Cc4cccc(F)c4C3)C[C@H]1C(=O)N2 [Compound 1016]	< 100	< 100	–	–
COCC1(S(=O)(=O)NC(=O)[C@@]23C[C@H]2/C=C\CCCCC[C@H](NC(=O)OC2CCCC2)C(=O)N2C[C@H](OC(=O)N4Cc5cccc(F)c5C4)C[C@H]2C(=O)N3)CC1 [Compound 171]	< 100	< 100	–	–
O=C1N[C@]2(C(=O)NS(=O)(=O)C3CC3)C[C@H]2/C=C\CCCCC[C@H](Nc2nccs2)C(=O)N2C[C@H](OC(=O)N3Cc4cccc(F)c4C3)C[C@@H]12 [Compound 924]	< 100	< 100	–	–
CC(C)(C)OC(=O)N[C@H]1CCCOCCC[C@@H]2C[C@@]2(C(=O)NS(=O)(=O)C2CC2)NC(=O)[C@@H]2C[C@@H](OC(=O)N3Cc4cccc(F)c4C3)CN2C1=O [Compound 1023, (2R,6S,13aR,14aR,16aS)-6-(tert-butoxycarbonylamino)-14a-(cyclopropylsulfonylcarbamoyl)-5,16-dioxohexadecahydro-1H-cyclopropa(e)pyrrolo[2,1-i][1,7,10]oxadiazacyclopentadecin-2-yl 4-fluoroisoindoline-2-carboxylate]	–	< 1000	–	< 100

— patent US7829665B2 (priority 2005, dated 2010)
